Data taken from patent US5298397A, “Method of assaying d-vanillylmandelic acid” (Yamasa Shoyu Kabushiki Kaisha, priority 1989, dated 1994).

Columns and labels:
anti-D-VMA antibody = assay: Cross-reactivity of anti-D-VMA monoclonal antibodies with acidic catecholamine metabolites (competitive enzyme immunoassay); format: binding, mouse; details: reactivity with D-VMA defined as 100%; for Antibody Reactivity (% by weight): from concentration ratios at 50% inhibition on standard curves
Method: Three days after the final booster, spleen cells of the mouse were enucleated and washed with Eagle's minimum essential medium (MEM). […] The spleen cells and P3 U1 were mixed at 10:1 and the mixture was centrifuged. To the pellets obtained was gradually added 1 ml of an MEM solution containing 50% polyethylene glycol (PEG) 1000 to cause cell fusion. […] 0.1 ml of the suspension was apportioned to each well of a 96-well microplate. One day thereafter, 0.1 ml of HAT medium was added. […] Into each well of the 96-well microplate previously coated with HSA and the 96-well microplate coated with D-VMA-HSA (10 μg/ml) was added […] of the above diluted culture supernatant. […] After one hour at room temperature, by the use of the same reagent as in the case of the ELISA method as described above except for using O-phenylenediamine as the chromogenic reagent, enzyme immunoassay was practiced according to the competitive reaction method.

[1] = system: peroxidase-labeled anti-D-VMA antibody; assay: Competitive enzyme immunoassay of D-VMA or L-VMA solutions with peroxidase-labeled anti-D-VMA antibody on solid-phase antigen plate; format: binding, mouse; details: conclusion drawn from Table 2
Method: A volume of 50 μl of the D-VMA solution or L-VMA solution as described above and 50 μl of the peroxidase-labeled anti-D-VMA antibody solution were added into each well, and reaction was carried out stationarily at room temperature for one hour.
After reaction, the solution in each well was discarded and each well was washed with a 0.9% aqueous sodium chloride solution.
After washing, 100 μl of a substrate solution (containing 1 mM H2 O2 and […] TMBZ) was added and left standing for 25 minutes. A volume of 100 μl of a reaction stopping solution (a 2N sulfuric acid solution) was added, and absorbance at 450 nm was measured by the use of a 96-well microplate reader MPR-A4 (produced by Toso K. K.).
After measurement, from the calibration curve prepared by the use of DL-VMA of a known concentration as a standard substance (FIG. 1), the VMA concentration corresponding to the above absorbance was determined.

Row | Antibody Reactivity (% by weight) (anti-D-VMA antibody) | reactivity of the labeled antibody [1] | cross-reactivity of the antibody reagent (anti-D-VMA antibody) [%] | Structure (SMILES)
1 | 4 | – | – | COc1cc(CC(=O)C(=O)O)ccc1O [Vanillylpyruvic acid]
2 | < 1 | substantially no reactivity | ≤ 1 | COc1cc([C@H](O)C(=O)O)ccc1O [L-VMA]
3 | 4 | – | – | O=C(O)C(O)c1ccc(O)c(O)c1 (stereo not shown) [3,4-Dihydroxymandelic acid (DOMA), 3,4-Dihydroxymandelic acid]
4 | 100 | – | – | COc1cc([C@@H](O)C(=O)O)ccc1O [D-VMA, D-vanillylmandelic acid]
5 | 50 | – | – | COc1cc(C(O)C(=O)O)ccc1O (racemic) [DL-VMA, vanillylmandelic acid]

Row | Structure (SMILES) | Antibody Reactivity (% by weight) (anti-D-VMA antibody) | reactivity of the labeled antibody [1] | cross-reactivity of the antibody reagent (anti-D-VMA antibody) [%]
6 | CNCC(O)c1ccc(O)c(OC)c1 (stereo not shown) [Metanepherine] | < 0.01 | – | –
7 | COc1cc(CC(=O)O)ccc1O [Homovanilic acid (HVA), Homovanilic acid] | < 0.01 | – | –
8 | O=C(O)Cc1ccc(O)c(O)c1 [3,4-Dihydroxyphenylacetic acid (DOPAC), 3,4-Dihydroxyphenylacetic acid] | < 0.01 | – | –
